Values quoted from earlier work in patent US9399652B2, “Synthetic route to pactamycin and pactamycin analogs” (The University of North Carolina at Chapel Hill, priority 2013, dated 2016).

Settings: literature value (ref. 11); cell line not given; read-out: cytotoxicity (IC50)

SMILES: CC(=O)c1cccc(N[C@H]2[C@H](N)[C@@](NC(=O)N(C)C)([C@H](C)O)[C@@](C)(O)[C@@]2(O)COC(=O)c2c(C)cccc2O)c1 [Pactamycin]
- IC50: 95 nM
